Source: patent publication US10886008B2, “Methods and systems for determining the biological age of samples” (Spring Discovery, Inc., priority 2018, dated 2021)

Legend:
mouse myoblast cells = assay: In vitro cell-based drug screening of mouse myoblast cells with machine-learning biological age prediction; parameters: species or system C57BL/6J mice; conditions: for Change relative to control: average predicted age of treatment vs vehicle control wells on the same plate, concentrations of Table 8; for Average predicted age of treatment (months): primary myoblasts, concentrations of Table 8: Oxytocin 30 nM, TGFbeta 10 ng/mL, Wnt3a 100 ng/ml, Klotho 0.5 μg/mL, ALK5 inhibitor II 0.5 μM, PP242 300 nM, stained 48 hours post-plating
Protocol: The machine learning systems and methods for predicting biological age were applied toward accelerating drug screens designed to detect interventions that slow or reverse one or more phenotypes of aging. Such a drug screening approach was tested using proof-of-concept drug screens, including an in vitro drug screening experimental model. This machine learning-based drug screening approach for aging-related therapies is described below. The machine learning-based mouse myoblast cellular aging approach was used to test an in vitro screening model for detecting anti-aging molecules for myoblasts.
The myoblast cell screening was run in parallel with the myoblast biological age prediction described in Example 3, and the same processes for primary cell acquisition, preparation, processing, and image acquisition steps were performed as described in Example 3.
For myoblast screening, replicate 384-well plates were dedicated to testing compound treatments (Treatment Plates) and were seeded with primary myoblasts, replicating the same plate layout as the myoblast age prediction experiment described in Example 3.
For the Treatment Plates, after the cells adhere to the plate (around 2 hours post-plating) the media was changed. For each set of 10 replicate wells from each primary myoblast line, 4 of the wells received media supplemented with vehicle control, 3 wells received media supplemented with one test compound, and 3 wells received media supplemented with another test compound. In this manner, each Treatment Plate was used to test two different compounds, and three Treatment Plates were used in total to test six different compounds.
All Treatment Plates were fed 24 hours post-plating with myoblast growth media supplemented with drugs or their respective vehicle control.
As mentioned, the plates are handled, processed, and stained in the same way as described in the myoblast biological age prediction described in Example 3. Briefly, these plates were stained for EdU, desmin, ER cytopainter, and counterstained with Hoechst.
Next, the data were prepared using a similar process as that described in Example 3. This created a treatment dataset that was analyzed using a previously generated aging model, which was trained on the aging dataset that was generated as described in Example 3.
Next, the data was analyzed using a similar deep convolutional neural network architecture and the machine learning analysis approach described in Example 1. First, the deep convolutional neural network architecture was trained using the aging dataset and the machine learning analysis approach described in Example 1. Performing this training yields a final set of weights to use with the neural network for the treatment analysis. Second, the effects of the treatments were analyzed by applying the generated neural network to the entirety of the treatment dataset. This is subsequently referred to as a “transference” of the aging model to the treatment data.
Next, as described in Example 6, average age predictions for each mouse were produced by predicting the biological age classification for each tile and averaging all tiles' predictions together. This calculation was performed for all three folds of the data, and those average predictions were then averaged together again. This produced a single numerical biological age prediction for each mouse, which was compared to control.
Next, as described in Example 6, p-values were calculated using the Kolmogorov-Smirnov test to assess the statistical difference of the distributions of age predictions for each compound versus control. Note that in this case, because there are multiple plates being tested, each with different test compounds, each compound is compared only to the control wells on its own plate, thereby resulting in different control values for each compound, as shown in Table 9.

mouse skin tissue = assay: In vivo tissue-based drug screening of mouse skin tissue with machine-learning biological age prediction; parameters: species or system C57BL/6J mice; conditions: daily topical application for 61 days
Protocol: The machine learning systems and methods for predicting biological age were applied toward accelerating drug screens designed to detect interventions that slow or reverse one or more phenotypes of aging. Such a drug screening approach was tested using proof-of-concept drug screens, including an in vivo drug screening experimental model. This machine learning-based drug screening approach for aging-related therapies is described below. The machine learning-based skin tissue aging modeling approach was used to test an in vivo screening system for detecting topical anti-aging interventions on mouse skin.
Mouse skin tissue samples were acquired and prepared as follows. Skin samples were collected from 75 healthy C57BL/6J mice in five separate groups: 15 mice in a control group were 10 months old (“Control 1”), 15 mice in another control group were 14 months old (“Control 2”), 15 mice in a third control group were 18 months old (“Control 3”), and two independent treatment groups comprised 18-month-old mice (“Test Article 1” and “Test Article 2”). Each treatment group included 15 mice given a daily topical application for 61 days, as detailed below. All mouse ages are referenced from the start of the experiment.
The mice were shaved as necessary on a weekly basis in order to enable daily topical application on the back of the mice. […]

Compound	Change relative to control (mouse myoblast cells) [%]	Average predicted age of treatment (months) (mouse myoblast cells)	Average predicted age (months) (mouse skin tissue; 18-month-old mice, HES-stained skin biopsies, averaged over tiles, three folds and mice)	Change relative to control group (mouse skin tissue; average predicted age vs control group (averaged across control groups 1-3)) [%]
Cc1cccc(-c2[nH]ncc2-c2ccc3ncccc3n2)n1 [ALK5 inhibitor II]	−14.13	56.22	–	–
CC[C@H](C)[C@@H]1NC(=O)[C@H](Cc2ccc(O)cc2)NC(=O)[C@@H](N)CSSC[C@@H](C(=O)N2CCC[C@H]2C(=O)N[C@@H](CC(C)C)C(=O)NCC(N)=O)NC(=O)[C@H](CC(N)=O)NC(=O)[C@H](CCC(N)=O)NC1=O [Oxytocin]	−0.92	67.66	–	–
CC(C)n1nc(-c2cc3cc(O)ccc3[nH]2)c2c(N)ncnc21 [PP242]	−17.14	56.16	–	–
CC1=C(/C=C/C(C)=C/C=C/C(C)=C/C(=O)O)C(C)(C)CCC1 [Test Article 1, All Trans Retinoic Acid]	–	–	15.9	−7.28
Wnt3a	−5.04	64.11	–	–
